The test system of data set [1] is Ki67 staining (cell proliferation). Description: Cell proliferation by Ki67 immunohistochemistry in mammary glands of LoxP mice. In kind it is in vivo, mouse. The note with it: for cell proliferation as assessed by Ki67 immunohistochemistry: after treatment.
The test system of data set [2] is PR/p63 double positive cells. Description: Simultaneous immunofluorescence for PR and p63 in mammary glands of Brca1LoxP/Brca1LoxP (C57 loxP) mice. In kind it is in vivo, mouse. The note with it: 7 days of treatment; for frequency of PR/p63 double positive cells (in words): LoxP mice; for frequency of PR/p63 double positive cells: C57 loxP mice, untreated loxP 22.5±0.8%, wildtype 3.8±0.4%. The procedure: Simultaneous Immunofluorescence for PR and p63: 3-5 μm paraffin embedded tissue sections from C57/b and C57 loxP mice were stained using antibodies against PR and p63 (Lab Vision). Briefly, samples were deparaffinized by 60° C. heating following by xylene immersion for 30 min. Antigens were retrieved by heating 10 min 95° C. followed by 10 min 85° C. in citric acid pH 6.0 (Vector). […] Next day, specific secondary goat anti mouse Alexa Fluor 488 and donkey anti rabbit Alexa Fluor 594 antibodies (Invitrogen) were used to a final concentration of 1:200 to detect the primary antibodies, by incubating the samples for 1 hour at room temperature. Finally, samples were counterstained using DAPI at 0.02 mg/ml and mounted with Vectashield (Vector). Samples were imaged using a 40× objective with 0.95 numerical aperture Zeiss Plan-Apochromat objective on a Zeiss Axiovert equipped with epifluorescence. The number of epithelial cells positive for PR, p63 or both, was then calculated as the relative frequency of positive cells per epithelial cells per image. Finally, frequencies of positive cells between animal groups were statistically analyzed with the chi-square distribution. A probability of p<0.05 was considered statistically significant. Women with BRCA1 mutations are at high risk for developing breast cancer. As described above, an animal model of Brca1 deficiency (Brca1^LoxP/Brca1^LoxP mouse model system, also referred to herein as the LoxP mouse model system) was developed in which the mammary glands are abnormally developed and which presents with a phenotype similar to that observed in women with BRCA1 mutations. The Brca1loxP/loxP phenotype is characterized by ductal dilatation and epithelial hyperplasia. In earlier studies, 4 month old Brca1loxP/loxP mice were treated with pasireotide, PQ401 (a small molecule kinase inhibitor of the IGF-I receptor), or vehicle for 7 days. At the end of that period, mammary development in drug- vs. vehicle-treated animals was compared.

The test system of the next data set is Brca1LoxP/Brca1LoxP mice. The data set is described as follows: LoxP mammary phenotype (duct width, hyperplasia, HANs) after IGF-I inhibitor treatment. The note with it: for duct width, glandular hyperplasia and hyperplastic alveolar nodules (in words): symptomatic LoxP mice, after treatment. In kind it is in vivo, mouse. The procedure:
The present inventor and colleagues have previously shown that growth hormone induced IGF-I activity is essential for mammary development and also estrogen and progesterone action. To determine whether inhibition of IGF-I action would prevent, reverse or delay the abnormalities associated with BRCA deficiency observed in LoxP animals, symptomatic animals were treated with three different compounds that inhibit IGF-I action.
Women with BRCA1 mutations are at high risk for developing breast cancer. As described above, an animal model of Brca1 deficiency (Brca1^LoxP/Brca1^LoxP mouse model system, also referred to herein as the LoxP mouse model system) was developed in which the mammary glands are abnormally developed and which presents with a phenotype similar to that observed in women with BRCA1 mutations. The Brca1loxP/loxP phenotype is characterized by ductal dilatation and epithelial hyperplasia. In earlier studies, 4 month old Brca1loxP/loxP mice were treated with pasireotide, PQ401 (a small molecule kinase inhibitor of the IGF-I receptor), or vehicle for 7 days. At the end of that period, mammary development in drug- vs. vehicle-treated animals was compared.

Data set [3] deals with cells with more than 1 or 2 centrosomes per cell. Description: Centrosome index by γ-tubulin immunolocalization in mammary glands of LoxP mice (genomic instability). In kind it is in vivo, mouse. The following applies: 7 days of treatment. The text has this: Evidence directed to this point is presented in FIG. 2A, wherein immunolocalization of γ-tubulin (green) is used to locate centrosomes in the mammary glands of wildtype (WT) or Brca1 deficient (Brca1^LoxP/Brca1^LoxP) mice. Nuclei (blue) are counterstained. As shown therein, 1 or 2 centrosomes per cell are observed in wildtype mice, reflecting normal, control numbers of centrosomes in individual cells.
Nuclei (blue) are counterstained. In wildtype mice, 1 or 2 centrosomes per cell are observed, reflecting normal, control numbers of centrosomes in individual cells.

For data set [4] the following is noted: Phase III, Cushing's disease; cited from earlier work.
The conditions of data set [5]: humans, cited from earlier work.
The next data set addresses SSTR-2 (Homo sapiens, UniProt P30874). The note with it: cited from earlier work.
For the next data set, the target named is SSTR-3 (Homo sapiens, UniProt P32745). The following applies: cited from earlier work.
The test system of a further data set is somatostatin receptors. The following applies: of 5 subtypes; cited from earlier work.
A short description of data set [6]: Serum glucose and insulin levels during and post SOM230 treatment in patients. The following applies: human, in vivo.
The target in another data set is SSTR-1 (Homo sapiens, UniProt P30872). The note with it: cited from earlier work.
The conditions of data set [7]: rats; Bruns et al. 2002, van der Hoek et al. 2004; cited from earlier work.
For the next data set, the target named is SSTR-5 (Homo sapiens, UniProt P35346). The note with it: cited from earlier work.
Data set [8] deals with mammary gland development. The note with it: rats; cited from earlier work.
The test system of another data set is breast cancer. The note with it: women with hyperplastic lesions of the breast; clinical evidence; cited from earlier work.
The mark [9] stands for this setting: 13 patients, 30 days after stopping SOM230.

Data on four molecules can be found in patent US9408887B2, “Intermittent dosing regimen for treating breast cancer” (New York University, priority 2011, dated 2016).

Structures are written as SMILES. “Also recorded” adds a separate entry of the source. Where two headings read alike, the source gives them in different places. Starred links: 1 amine or outer side, 2 acyl side, 3 side chain; linkers in the order of their positions; H or OH if unused. Non-standard residues stand in square brackets, D forms with d. Residues, ends and D or L forms follow the SMILES beside them. Groups on a side chain read outwards from the residue. *: point of attachment. Ethylenediamine = C(CN[*:2])N[*:1]; Hyp = O=C(O)[C@@H]1C[C@@H](O)CN1; Phg = N[C@H](C(=O)O)c1ccccc1; CO = O=C([*:1])[*:2]; Bn = c1ccc(C*)cc1 A value given as a limit tells only on which side of the number the result lay.

SSTR-3, sequence (P32745 whole entry, species assumed): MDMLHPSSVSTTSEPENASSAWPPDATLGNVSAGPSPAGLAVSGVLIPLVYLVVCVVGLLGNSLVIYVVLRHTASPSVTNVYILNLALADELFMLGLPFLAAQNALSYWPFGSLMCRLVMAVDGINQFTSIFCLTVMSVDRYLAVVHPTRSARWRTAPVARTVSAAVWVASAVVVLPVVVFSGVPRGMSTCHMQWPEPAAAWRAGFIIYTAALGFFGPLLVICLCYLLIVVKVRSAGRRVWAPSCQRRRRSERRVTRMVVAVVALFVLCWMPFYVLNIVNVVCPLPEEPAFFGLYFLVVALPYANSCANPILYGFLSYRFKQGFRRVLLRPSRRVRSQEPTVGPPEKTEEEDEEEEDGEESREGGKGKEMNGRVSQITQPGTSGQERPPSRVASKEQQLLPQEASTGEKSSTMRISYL
SSTR-2, sequence (P30874 whole entry, species assumed): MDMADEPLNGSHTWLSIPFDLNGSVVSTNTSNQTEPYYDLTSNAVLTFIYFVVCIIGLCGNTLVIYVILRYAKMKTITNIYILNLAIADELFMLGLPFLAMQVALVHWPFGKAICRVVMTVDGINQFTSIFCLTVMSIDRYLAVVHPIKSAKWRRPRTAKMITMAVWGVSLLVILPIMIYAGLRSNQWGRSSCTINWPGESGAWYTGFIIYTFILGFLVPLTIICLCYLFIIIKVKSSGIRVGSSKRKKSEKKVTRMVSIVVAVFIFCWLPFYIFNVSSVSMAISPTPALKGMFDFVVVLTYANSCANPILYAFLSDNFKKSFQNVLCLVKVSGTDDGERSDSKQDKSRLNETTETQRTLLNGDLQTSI
SSTR-5, sequence (P35346 whole entry, species assumed): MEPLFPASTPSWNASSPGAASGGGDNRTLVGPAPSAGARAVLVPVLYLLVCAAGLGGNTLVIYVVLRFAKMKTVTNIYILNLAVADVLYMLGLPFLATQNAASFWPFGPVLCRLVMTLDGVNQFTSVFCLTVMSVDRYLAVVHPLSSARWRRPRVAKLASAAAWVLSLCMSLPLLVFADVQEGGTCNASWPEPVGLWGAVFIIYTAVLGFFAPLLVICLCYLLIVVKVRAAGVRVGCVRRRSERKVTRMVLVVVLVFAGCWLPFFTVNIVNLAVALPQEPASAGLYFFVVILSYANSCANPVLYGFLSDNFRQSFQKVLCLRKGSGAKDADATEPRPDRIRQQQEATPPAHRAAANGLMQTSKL
SSTR-1, sequence (P30872 whole entry, species assumed): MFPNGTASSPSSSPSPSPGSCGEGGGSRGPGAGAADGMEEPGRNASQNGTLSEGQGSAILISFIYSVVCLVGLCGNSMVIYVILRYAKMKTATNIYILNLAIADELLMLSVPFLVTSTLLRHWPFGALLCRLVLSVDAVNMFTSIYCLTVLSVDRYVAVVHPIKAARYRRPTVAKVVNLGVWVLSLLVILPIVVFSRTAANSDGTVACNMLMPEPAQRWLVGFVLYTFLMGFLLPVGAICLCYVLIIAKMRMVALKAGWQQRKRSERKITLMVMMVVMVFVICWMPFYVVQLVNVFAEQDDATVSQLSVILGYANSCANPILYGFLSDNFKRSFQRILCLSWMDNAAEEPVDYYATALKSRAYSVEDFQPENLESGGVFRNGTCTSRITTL

Take `COc1ccc(Cl)cc1NC(=O)Nc1cc(C)nc2ccccc12` [PQ401]: the “cell proliferation as assessed by Ki67 immunohistochemistry” value in data set [1] is listed as “significantly reduce cell proliferation”. Moreover, the “frequency of PR/p63 double positive cells (in words)” value in data set [2] was “significantly reduce; also recorded: dramatically reduced”. In the data set with Brca1LoxP/Brca1LoxP mice, the “duct width, glandular hyperplasia and hyperplastic alveolar nodules (in words)” value was “reduces duct width, glandular hyperplasia and hyperplastic alveolar nodules”. For the same molecule, the “centrosome index / frequency of cells with more than 1 or 2 centrosomes (in words)” value in [3] is given as “significantly reduced”.

In the case of `NCCCC[C@@H]1NC(=O)[C@@H](Cc2c[nH]c3ccccc23)NC(=O)[C@H](c2ccccc2)NC(=O)[C@@H]2C[C@@H](OC(=O)NCCN)CN2C(=O)[C@H](Cc2ccccc2)NC(=O)[C@H](Cc2ccc(OCc3ccccc3)cc2)NC1=O` [SOM230] (cyclo(F[Hyp]([CO-Ethylenediamine])[Phg][dW]KY(Bn))), in data set [4], the HbA1C level entry is given as “increased”, the cholelithiasis is reported as 30%, the diarrhea is 58% and the “fasting plasma glucose level” value is on record as “increased”. In [4], the hyperglycemia was 40%, the nausea is 52% and the “patients with a hyperglycemia-related adverse event” value is 73%. Further, in data set [5] (Bruns et al. 2002, van der Hoek et al. 2004), the terminal half life is 27 h. Also, in data set [5] (Ma et al. 2005), the plasma half life result was “approximately 12 hours”. Besides, at SSTR-2, the “affinity for SSTR-2” value is reported as “high binding affinity”. For the same molecule, the “affinity for SSTR-3” value on SSTR-3 is “high binding affinity”. The somatostatin receptors bound in the data set with somatostatin receptors is given as 4 of the 5. The “normalization of finger stick glucose after stopping medication (in words)” value in data set [6] is reported as “almost immediately”. For the setting “13 patients”, the “serum glucose at 60 days after discontinuation” value is “normal”; the “serum insulin at 60 days after discontinuation” value is reported as “normal”; the “time by which serum glucose and insulin levels normalize after SOM230 administration ceases” value is on record as at most 30 days. In addition, under setting [9], the mean glucose was found to be 95 and the serum insulin entry was “increased”. Besides, the “women tested with finger stick glucoses of less than 92 mg/dL” value (by 4 days after cessation of SOM230 administration) is 6 of 8. For the setting “patients diagnosed with or pre-disposed to breast cancer treated with SOM230”, this molecule had a patients with hyperglycemia of 100%. The “30 day post-treatment glucose of the patient ultimately determined to be diabetic” value (single patient, initial blood sugar 100) was 117. The “affinity for SSTR-1” value at SSTR-1 was “high binding affinity”. Moreover, the terminal half life in data set [7] was 27 h. Besides, in data set [1], the “cell proliferation as assessed by Ki67 immunohistochemistry” value is given as “significantly reduce cell proliferation”. For the same molecule, the “cell proliferation (Ki67 staining) at 21 days post-treatment” value in [1] (treated vs untreated, 21 days into rest period) was “continues to be inhibited”. Further, in [2], the “frequency of PR/p63 double positive cells” value was 5% and the “frequency of PR/p63 double positive cells (in words)” value is on record as “significantly reduce; also recorded: dramatically reduced”. For the same molecule, the “frequency of PR/p63 double positive cells” value in data set [2] (listed as pasireotide) was determined as 4.8±1.2%. Besides, on SSTR-5, the “affinity for SSTR-5” value is given as “high binding affinity”. Also, in the data set on Brca1LoxP/Brca1LoxP mice (LoxP mice), the abnormal ductal dilatation result is “significant effect on inhibiting” and the “formation of HANs” value was “preventing formation of HANs”. For the same molecule, in the data set on Brca1LoxP/Brca1LoxP mice (LoxP mice, SOM230 treatment then 21 days rest), the “duct width at 21 days post-treatment (in words)” value is “maintained”. The “time clinical benefit (reduction in PR/p63+ progenitor cells, ductal width and/or proliferative cells) is maintained into the rest period” value in the data set on Brca1LoxP/Brca1LoxP mice (LoxP mice, after end of administration) is “at least 20 days”. Further, the “duct width, glandular hyperplasia and hyperplastic alveolar nodules (in words)” value with Brca1LoxP/Brca1LoxP mice was “reduces duct width”. In addition, the “duct width, glandular hyperplasia and hyperplastic alveolar nodules (in words)” value with Brca1LoxP/Brca1LoxP mice (listed as Pasireotide) is “reduces duct width, glandular hyperplasia and hyperplastic alveolar nodules”. Besides, the “centrosome index / frequency of cells with more than 1 or 2 centrosomes (in words)” value in data set [3] was “significantly reduced”. In data set [8], the “IRS-1 phosphorylation in the mammary gland” value is on record as “reduction”, the “growth hormone secretion from the pituitary” value is given as “inhibitory effect” and the mammary gland development result is listed as “prevents mammary gland development”.

With `C[C@H](N)C(=O)NCC(=O)N[C@H]1CSSC[C@@H](C(=O)O)NC(=O)[C@H](CO)NC(=O)[C@H]([C@@H](C)O)NC(=O)[C@H](Cc2ccccc2)NC(=O)[C@H]([C@@H](C)O)NC(=O)C(CCCCN)NC(=O)[C@H](Cc2c[nH]c3ccccc23)NC(=O)[C@H](Cc2ccccc2)NC(=O)[C@H](Cc2ccccc2)NC(=O)[C@H](CC(N)=O)NC(=O)[C@H](CCCCN)NC1=O` (some centres unmarked) [SS14], the somatostatin receptors bound entry in the data set on somatostatin receptors is on record as “all of the somatostatin receptors”. The “number of HANs” value in the data set with Brca1LoxP/Brca1LoxP mice (nine month old LoxP animals) is “impressive reduction”. The “duct width, glandular hyperplasia and hyperplastic alveolar nodules (in words)” value with Brca1LoxP/Brca1LoxP mice was “reduces duct width, glandular hyperplasia and hyperplastic alveolar nodules”.

Consider `CC/C(=C(\c1ccccc1)c1ccc(OCCN(C)C)cc1)c1ccccc1` [tamoxifen], for which, in the data set with breast cancer, the “prevention of the development of cancer” value is recorded as “about 50%”.
